Read-outs that look alike come from different tables or passages of the source. Square brackets hold non-standard residues; d marks the D form. Peptide text beside a SMILES is read from it. * marks the point of attachment. PEG8 = NCCOCCOCCOCCOCCOCCOCCOCCOCCC(=O)O; Palmitoyl = CCCCCCCCCCCCCCCC(=O)*; Tic = O=C(O)[C@@H]1Cc2ccccc2CN1
Test: solubility and pH stability of OK-101 in sodium phosphate buffer
Assay type: physicochemical
Settings: read-out: concentration of OK-101 observed (solubility)
Method: The solubility and pH stability of OK-101 at a target concentration of 0.05% w/v, was tested in either 50 mM or 100 mM sodium phosphate buffer. For each concentration of sodium phosphate buffer, the solubility and pH stability were determined in three separate buffer batches, each with a different starting pH.

CCCCCCCCCCCCCCCC(=O)NCCOCCOCCOCCOCCOCCOCCOCCOCCC(=O)NCC(=O)NCC(=O)N[C@H](Cc1ccc(O)cc1)C(=O)N[C@@H](Cc1ccccc1)C(=O)N[C@@H](CC(C)C)C(=O)N1CCC[C@H]1C(=O)N[C@H](CO)C(=O)N[C@@H](CCC(N)=O)C(=O)N[C@@H](Cc1ccccc1)C(=O)N[C@H](C)C(=O)N1Cc2ccccc2C[C@H]1C(=O)N[C@@H](CO)C(=O)O [OK-101] ({Palmitoyl-PEG8}-GG[dY]FLP[dS]QF[dA][Tic]S-OH)
solubility (three batches of 50 mM sodium phosphate buffer): > 25 mg/mL
solubility (three batches of 100 mM sodium phosphate buffer): > 30 mg/mL
